We go through 32 compounds from patent publication US12115208B2, “Small-molecule adjuvants for antibiotics to address antibiotic resistance” (HIGH POINT UNIVERSITY, priority 2017, dated 2024).

One experiment deals with S. aureus 43300 (MRSA). The experiment can be described thus: Antibiotic repotentiation (antibiotic MIC with/without compound). As to conditions: S. aureus 43300 (MRSA); for Fold Reduction: oxacillin MIC. The format is cell-based, Staphylococcus aureus. The method, then: The overnight culture was diluted into fresh CAMHB to a concentration of 5×10^5 CFU/ml. […] On the same plate, a standard microdilution MIC with the tested antibiotics and no added compound was also performed to compare the antibiotic MIC in the presence and absence of compound. […] Fold reductions were calculated by dividing the MIC of the antibiotic without compound by the MIC of the antibiotic in the presence of compound.
(§1) The compounds were then analyzed for antibiotic repotentiation activity. […] The tested strains included USA300, which is a common and particularly virulent strain of community-acquired MRSA.

The subject of experiment [1] is S. epidermidis ATCC 49461 biofilm. The experiment can be described thus: Biofilm inhibition, crystal violet assay. The format is cell-based, Staphylococcus epidermidis. Conditions: read-out: Inhibition of biofilm formation IC50. As to the method:
A standard static crystal violet assay was used to quantify biofilm inhibition.^45 Cultures of S. aureus or S. epidermidis were grown overnight in TSBG (tryptic soy broth with 5% glucose) at 37° C. with shaking. These cultures were used to inoculate fresh TSBG to a calculated optical density of 0.01 at 600 nm (OD600). […] Untreated aliquots were used as a positive control and water served as a negative control. 100 μl of these suspensions were added to the wells of a 96-well polyvinylchloride microtiter plate. […] After incubation, media was discarded and the plates were washed with water to remove non-adherent cells. Adherent biofilms were stained with 110 μl of crystal violet (0.1% in water) and incubated at room temperature for thirty minutes. The crystal violet staining solution was discarded and plates were washed with water to remove excess stain. The resulting stained biofilms were solubilized with 200 μL of 95% ethanol for 10 minutes. 125 μl of the ethanol solutions were transferred to a clear polystyrene microtiter plate for evaluation. Absorbance at 540 nm was recorded using a BioTek Synergy H1 microplate reader. The absorbance of the negative control lanes was subtracted from the experimental values to account for background staining. Percent inhibition was calculated by comparison of the absorbance values of control versus treated wells under identical conditions.

In experiment [2] the test system is S. aureus ATCC 43300 (MRSA). The experiment can be described thus: Minimum inhibitory concentration, broth microdilution. The format is cell-based, Staphylococcus aureus. As to conditions: compound alone; S. aureus ATCC 43300 (MRSA); CAMHB, 18 h; read-out: MIC. As to the method: as §1
For orientation: Dilution methods test growth across graded concentrations, often in twofold steps.

Setting [3] is: Staphylococcus epidermidis, ATCC49461, 30 h.

Molecules are shown by their SMILES. pIC50: −log10 of the molar value. Read-outs that look alike come from different tables or passages of the source.

In the case of `COc1ccnc2c1ccc1c(OC)ccnc12` [Compound V-12], in the experiment with S. aureus 43300 (MRSA) (+7.8 μM compound), the “Oxacillin MIC” value was found to be 4 µg/mL and the “Fold Reduction” value turned out to be 8. Further, the pIC50 (commonly the negative decadic logarithm of the IC50, by convention in mol/L) in experiment [1] (30 h) is < 4.00. Further, the MIC (as a rule, the smallest concentration in the dilution series that meets the test's criterion for growth inhibition) in experiment [2] came out at 31.25 µM.
For the compound `NC1=Nc2ccccc2Oc2ccc(Cl)cc21` [II-7], in the experiment with S. aureus 43300 (MRSA) (+50 μM compound), the “Oxacillin MIC” value was 32 µg/mL and the “Fold Reduction” value stood at 1.
Take `Oc1ccnc2c1ccc1c(O)ccnc12` [Compound V-11]: in the experiment on S. aureus 43300 (MRSA) (+62.5 μM compound), the “Oxacillin MIC” value is 32 µg/mL and the “Fold Reduction” value is given as 1. Further, the pIC50 in experiment [1] (30 h) was < 4.00. Further, the MIC in experiment [2] is on record as 250 µM.
Take `Cc1cnc2c(ccc3c(C)c(C)cnc32)c1C` [Compound V-14]: in the experiment on S. aureus 43300 (MRSA) (+0.78 μM compound), the “Oxacillin MIC” value was found to be 32 µg/mL and the “Fold Reduction” value stood at 1. Moreover, in experiment [1] (30 h), the pIC50 is < 4.00. The MIC in experiment [2] is given as 3.125 µM.
As for `Clc1ccc2c(c1)C(NC1CCCCC1)=Nc1ccccc1O2` [II-10], in the experiment with S. aureus 43300 (MRSA) (+50 μM compound), the “Oxacillin MIC” value is 32 µg/mL and the “Fold Reduction” value is reported as 1.
Turning to `c1cnc2ccc3ncccc3c2c1` [Compound V-2], in the experiment on S. aureus 43300 (MRSA) (+100 μM compound), the “Oxacillin MIC” value came out at 32 µg/mL and the “Fold Reduction” value was found to be 1. In addition, the negative logarithm of the IC50 (pIC50) in experiment [1] (30 h) is 4.07. Moreover, the MIC in experiment [2] came out at 1000 µM.
`O=C1CCCNc2cc(Cl)ccc21` [Compound I-6]: in the experiment on S. aureus 43300 (MRSA) (+50 μM compound), the “Oxacillin MIC” value stood at 16 µg/mL and the “Fold Reduction” value came out at 1.
For `C=CCN1c2ccccc2CCc2ccc(Cl)cc21` [II-5], in the experiment with S. aureus 43300 (MRSA) (+50 μM compound), the “Oxacillin MIC” value came out at 8 µg/mL and the “Fold Reduction” value is given as 4.
The corresponding values for `CCCCCCCCNC1=Nc2ccccc2Oc2ccc(Cl)cc21` [II-9] are 32 µg/mL and 1.
For the compound `O=[N+]([O-])c1cc2cccnc2c2ncccc12` [Compound V-7], in the experiment on S. aureus 43300 (MRSA) (+7.8125 μM compound), the “Oxacillin MIC” value stood at 16 µg/mL and the “Fold Reduction” value is on record as 2. For the same compound, in experiment [1] (30 h), the pIC50 is < 4.00. For the same compound, in experiment [2], the MIC stood at 31.25 µM.
On to `c1ccc(-c2ccnc3c2ccc2c(-c4ccccc4)ccnc23)cc1` [Compound V-13], for which the “Oxacillin MIC” value with S. aureus 43300 (MRSA) (+[…] compound) was 16 µg/mL. The negative-log IC50 (pIC50) in experiment [1] (30 h) was < 4.00. In addition, the minimal inhibitory concentration (MIC) in experiment [2] is on record as 6.25 µM.
Consider `CCCCN1CCC(=C2c3ccc(Cl)cc3CCc3cccnc32)CC1` [III-1, 11-(1-butylpiperidin-4-ylidene)-8-chloro-6,11-dihydro-5H-benzo[5,6]cyclohepta[1,2-b]pyridine], for which the “Fold Reduction” value in the experiment with S. aureus 43300 (MRSA) (+50 μM compound) stood at 1. Also, the negative-log IC50 (pIC50) in experiment [1] (setting [3]) was < 4.10.
Consider `Clc1ccc2ccc3cccnc3c2n1` [Compound V-5], for which, in the experiment on S. aureus 43300 (MRSA) (+100 μM compound), the “Oxacillin MIC” value was 32 µg/mL and the “Fold Reduction” value came to 1. Besides, in experiment [1] (30 h), the negative-log IC50 (pIC50) was 4.41. Moreover, in experiment [2], the MIC stood at 1000 µM.
As for `CCCCCCCCN1c2ccccc2CCc2ccc(Cl)cc21` [II-4], in the experiment on S. aureus 43300 (MRSA) (+50 μM compound), the “Oxacillin MIC” value stood at 32 µg/mL and the “Fold Reduction” value was 1.
As to `Cc1ccc2ccc3ccc(C)nc3c2n1` [Compound V-9], in the experiment with S. aureus 43300 (MRSA) (+31.25 μM compound), the “Oxacillin MIC” value was found to be 32 µg/mL and the “Fold Reduction” value was 1. Further, the negative logarithm of the IC50 (pIC50) in experiment [1] (30 h) is > 5.30. The MIC in experiment [2] was found to be 125 µM.
Consider `CC(C)c1ccc(CN2CCC(=C3c4ccc(Cl)cc4CCc4cccnc43)CC2)cc1` [III-5, 8-chloro-11-(1-(4-isopropylbenzyl)piperidin-4-ylidene)-6,11-dihydro-5H-benzo[5,6]cyclohepta[1,2-b]pyridine], for which the “Fold Reduction” value in the experiment with S. aureus 43300 (MRSA) (+50 μM compound) amounted to 16. Also, the pIC50 in experiment [1] (setting [3]) is 4.21.
On to `Cc1ccnc2c1NC(=O)c1cccnc1N2C1CC1` [Compound I-1], for which, in the experiment with S. aureus 43300 (MRSA) (+50 μM compound), the “Oxacillin MIC” value was 16 µg/mL and the “Fold Reduction” value is recorded as 1.
In the case of `c1cnc2c(c1)ccc1cccnc12` [Compound V-4], in the experiment on S. aureus 43300 (MRSA) (+31.25 μM compound), the “Oxacillin MIC” value was 8 µg/mL and the “Fold Reduction” value was found to be 4. In experiment [1] (30 h), the negative logarithm of the IC50 (pIC50) was 4.29. The minimal inhibitory concentration (MIC) in experiment [2] was 125 µM.
In the case of `CCN1c2ccccc2CCc2ccc(Cl)cc21` [II-2], in the experiment with S. aureus 43300 (MRSA) (+50 μM compound), the “Oxacillin MIC” value was 32 µg/mL and the “Fold Reduction” value came out at 1.
The matching figures for `O=c1c2ccccc2ccc2ccccc12` [Compound I-3]: 16 µg/mL and 1.
`Clc1ccnc2c1ccc1c(Cl)ccnc12` [Compound V-10]: in the experiment with S. aureus 43300 (MRSA) (+75 μM compound), the “Oxacillin MIC” value was 32 µg/mL and the “Fold Reduction” value worked out at 1. Further, the pIC50 in experiment [1] (30 h) is 4.56. Also, the MIC in experiment [2] was >500 µM.
Take `CCCCCCCCCN1CCC(=C2c3ccc(Cl)cc3CCc3cccnc32)CC1` [III-3, 8-chloro-11-(1-nonylpiperidin-4-ylidene)-6,11-dihydro-5H-benzo[5,6]cyclohepta[1,2-b]pyridine]: in the experiment on S. aureus 43300 (MRSA) (+50 μM compound), the “Fold Reduction” value was 1. Besides, the negative-log IC50 (pIC50) in experiment [1] (setting [3]) was < 4.10.
As to `c1ccc(-c2ccccn2)nc1` [Compound V-1], in the experiment on S. aureus 43300 (MRSA) (+100 μM compound), the “Oxacillin MIC” value came to 32 µg/mL and the “Fold Reduction” value came to 1. Further, the pIC50 in experiment [1] (30 h) is < 4.00. Besides, in experiment [2], the MIC is >2000 µM.
With `CCCCCN1c2ccccc2CCc2ccc(Cl)cc21` [II-3], in the experiment with S. aureus 43300 (MRSA) (+50 μM compound), the “Oxacillin MIC” value amounted to 16 µg/mL and the “Fold Reduction” value is given as 2.
`Cc1cc2cccnc2c2ncccc12` [Compound V-8]: in the experiment on S. aureus 43300 (MRSA) (+31.25 μM compound), the “Oxacillin MIC” value was found to be 2 µg/mL and the “Fold Reduction” value was 16. Moreover, in experiment [1] (30 h), the pIC50 is 4.10. Moreover, in experiment [2], the MIC is 125 µM.
In the case of `Clc1ccc2c(c1)CCc1cccnc1C2=C1CCN(Cc2ccccc2)CC1` [III-4], the “Fold Reduction” value in the experiment with S. aureus 43300 (MRSA) (+50 μM compound) is listed as 1. The pIC50 in experiment [1] (setting [3]) was < 4.30.
On to `C1=Cc2ccccc2Nc2ccccc21` [Compound I-4], for which, in the experiment with S. aureus 43300 (MRSA) (+50 μM compound), the “Oxacillin MIC” value came to 16 µg/mL and the “Fold Reduction” value is recorded as 1.
The matching figures for `CCCCCNC1=Nc2ccccc2Oc2ccc(Cl)cc21` [II-8]: 32 µg/mL and 1.
Consider `CCCCCN1CCC(=C2c3ccc(Cl)cc3CCc3cccnc32)CC1` [III-2, 8-chloro-11-(1-pentylpiperidin-4-ylidene)-6,11-dihydro-5H-benzo[5,6]cyclohepta[1,2-b]pyridine], for which the “Fold Reduction” value in the experiment with S. aureus 43300 (MRSA) (+50 μM compound) turned out to be 32. For the same compound, in experiment [1] (setting [3]), the negative logarithm of the IC50 (pIC50) is 4.57.
As for `Clc1ccc2c(c1)N(Cc1ccccc1)c1ccccc1CC2` [II-6], in the experiment on S. aureus 43300 (MRSA) (+50 μM compound), the “Oxacillin MIC” value was determined as 32 µg/mL and the “Fold Reduction” value was 1.
The corresponding values for `NC(=O)N1c2ccccc2C=Cc2ccccc21` [Compound I-2] are 16 µg/mL and 1.
As to `Brc1cc2ccccc2c2ccccc12` [Compound V-3], in the experiment with S. aureus 43300 (MRSA) (+75 μM compound), the “Oxacillin MIC” value is 8 µg/mL and the “Fold Reduction” value is on record as 4. Further, in experiment [1] (30 h), the negative-log IC50 (pIC50) was < 4.00. For the same compound, in experiment [2], the MIC is recorded as >250 µM.
